Measurements taken from PubChem BioAssay AID256 (DTP/NCI, 2004).
Toxic doses and inconclusive results are not listed. The calls were made as follows: active = survival T/C of 150% or more; inactive = T/C below 125% in these data.

Test system: CD2F1 mice, L1210 leukemia ip, survival T/C
Test: NCI In Vivo Anticancer Drug Screen. Data for tumor model L1210 Leukemia (intraperitoneal) in CD2F1 (CDF1) mice
Settings: endpoint: mean survival time, higher = longer survival
Procedure, shortened: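 Compound-dosed mice with transplantable tumor versus matched vehicle controls; endpoint ratio T/C reported.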

[1] = dose: 100.0 mg/kg/injection, schedule: Q01DX009 (ip), vehicle: saline with Tween-80
[2] = dose: 100.0 mg/kg/injection, schedule: Q04DX003 (ip), vehicle: saline with Tween-80
[3] = dose: 200.0 mg/kg/injection, schedule: Q01DX009 (ip), vehicle: saline with Tween-80
[4] = dose: 200.0 mg/kg/injection, schedule: Q04DX003 (ip), vehicle: saline with Tween-80
[5] = dose: 400.0 mg/kg/injection, schedule: Q01DX009 (ip), vehicle: saline with Tween-80
[6] = dose: 400.0 mg/kg/injection, schedule: Q04DX003 (ip), vehicle: saline with Tween-80
[7] = dose: 100.0 mg/kg/injection, schedule: Q04DX002 (ip), vehicle: saline with Tween-80
[8] = dose: 100.0 mg/kg/injection, schedule: Q01DX001 (ip), vehicle: saline with Tween-80
[9] = dose: 200.0 mg/kg/injection, schedule: Q01DX001 (ip), vehicle: saline with Tween-80
[10] = dose: 50.0 mg/kg/injection, schedule: Q01DX009 (ip), vehicle: saline with Tween-80
[11] = dose: 100.0 mg/kg/injection, schedule: Q01DX009 (ip), vehicle: saline
[12] = dose: 200.0 mg/kg/injection, schedule: Q01DX009 (ip), vehicle: saline
[13] = dose: 400.0 mg/kg/injection, schedule: Q01DX009 (ip), vehicle: saline

Measured: T/C

NNC(=S)NC1CC2C=CC1C2 (centres undefined)
inactive: dose: 6.25 mg/kg/injection, schedule: Q04DX003 (ip), vehicle: saline with Tween-80 95 % of control | dose: 12.5 mg/kg/injection, schedule: Q04DX003 (ip), vehicle: saline with Tween-80 95 % of control | dose: 25.0 mg/kg/injection, schedule: Q04DX003 (ip), vehicle: saline with Tween-80 97 % of control

NC(=O)C(Cl)(Cl)C(Cl)(Cl)C(Cl)(Cl)Cl
inactive: [1] 100 % of control | [2] 100 % of control | [3] 93 % of control | [4] 95 % of control | [5] 90 % of control | [6] 94 % of control

COC1CCC(/C(C#N)=C/C2CCC(OC)C(OC)C2)CC1 (centres undefined)
inactive: [7] 94 % of control | dose: 200.0 mg/kg/injection, schedule: Q04DX002 (ip), vehicle: saline with Tween-80 94 % of control | dose: 400.0 mg/kg/injection, schedule: Q04DX002 (ip), vehicle: saline with Tween-80 94 % of control

S=C(NCc1ccccc1)NCc1ccccc1
inactive: [2] 108 % of control | [4] 100 % of control | [6] 102 % of control

CC(C)(C)C1=CC(=N/S(=O)(=O)c2ccccc2)/C(N=[N+]=[N-])=C(Cl)C/1=N\S(=O)(=O)c1ccccc1
inactive: dose: 25.0 mg/kg/injection, schedule: Q01DX001 (ip), vehicle: saline with Tween-80 101 % of control | dose: 50.0 mg/kg/injection, schedule: Q01DX001 (ip), vehicle: saline with Tween-80 93 % of control | [8] 93 % of control | [9] 95 % of control | dose: 400.0 mg/kg/injection, schedule: Q01DX001 (ip), vehicle: saline with Tween-80 100 % of control

CC1(C)SC(C(NC(=O)COc2ccccc2)C(=O)O)NC1C(=O)O (centres undefined)
inactive: [2] 97 % of control | [4] 97 % of control

O=[N+]([O-])c1cc(Cl)cc2c1-c1ccc(Cl)cc1C2Br (centres undefined)
inactive: dose: 50.0 mg/kg/injection, schedule: Q01DX001 (ip), vehicle: carboxymethylcellulose (CMC) 104 % of control | dose: 100.0 mg/kg/injection, schedule: Q01DX001 (ip), vehicle: carboxymethylcellulose (CMC) 98 % of control | dose: 200.0 mg/kg/injection, schedule: Q01DX001 (ip), vehicle: carboxymethylcellulose (CMC) 104 % of control | dose: 400.0 mg/kg/injection, schedule: Q01DX001 (ip), vehicle: carboxymethylcellulose (CMC) 104 % of control

CCOC/C=C\C1CCCC1
inactive: [10] 94 % of control | [1] 100 % of control | [3] 102 % of control

CC1=NCCCN=C(C)CC[N-]CCC[N-]CC1.[Ni+2].[O-][Cl+3]([O-])([O-])O
inactive: dose: 25.0 mg/kg/injection, schedule: Q04DX002 (ip), vehicle: saline with Tween-80 103 % of control | dose: 50.0 mg/kg/injection, schedule: Q04DX002 (ip), vehicle: saline with Tween-80 115 % of control | [7] 103 % of control | dose: 100.0 mg/kg/injection, schedule: Q04DX002 (ip), vehicle: saline 124 % of control

CN(C)c1ccc(/C=N/NC(=O)COc2ccccc2)cc1
inactive: [1] 91 % of control | [3] 89 % of control

CCC1CN2CCc3cc(OC)c(OC)cc3C2CC1CC1c2cc(OC)c(OC)cc2CCN1C(=O)C(Cc1c[nH]c2ccccc12)NC(=O)OC(C)(C)C (centres undefined)
inactive: dose: 8.0 mg/kg/injection, schedule: Q04DX003 (ip), vehicle: saline with Tween-80 93 % of control | dose: 16.0 mg/kg/injection, schedule: Q04DX003 (ip), vehicle: saline with Tween-80 95 % of control | dose: 32.0 mg/kg/injection, schedule: Q04DX003 (ip), vehicle: saline with Tween-80 98 % of control | dose: 64.0 mg/kg/injection, schedule: Q04DX003 (ip), vehicle: saline with Tween-80 89 % of control | dose: 128.0 mg/kg/injection, schedule: Q04DX003 (ip), vehicle: saline with Tween-80 87 % of control

CC(O)(c1ccccc1)c1ccccc1
inactive: [1] 104 % of control | [3] 102 % of control | [5] 96 % of control

CCCCCCCCCC(O)CCCCCC (centres undefined)
inactive: dose: 200.0 mg/kg/injection, schedule: Q04DX003 (ip), vehicle: other 108 % of control | dose: 400.0 mg/kg/injection, schedule: Q04DX003 (ip), vehicle: other 96 % of control

O/N=C/c1cc[n+](CCC[n+]2ccc(/C=N/O)cc2)cc1
inactive: dose: 5.0 mg/kg/injection, schedule: Q01DX009 (ip), vehicle: saline sonified 98 % of control | dose: 5.0 mg/kg/injection, schedule: Q04DX003 (ip), vehicle: saline 103 % of control | dose: 10.0 mg/kg/injection, schedule: Q01DX009 (ip), vehicle: saline sonified 98 % of control | dose: 10.0 mg/kg/injection, schedule: Q04DX003 (ip), vehicle: saline 105 % of control | dose: 20.0 mg/kg/injection, schedule: Q01DX009 (ip), vehicle: saline sonified 95 % of control | dose: 20.0 mg/kg/injection, schedule: Q04DX003 (ip), vehicle: saline 101 % of control

CC(C)Oc1ccc2c(c1)Sc1ccc(Cl)cc1N2
inactive: [2] 93 % of control | [4] 96 % of control | [6] 102 % of control

CCOC(CCC#N)c1ccc(Cl)cc1 (centres undefined)
inactive: [11] 98 % of control | [2] 92 % of control | [12] 101 % of control | [4] 100 % of control | [13] 98 % of control | [6] 102 % of control

CC(=O)N1C(=O)C2(Nc3cccnc3N2)c2ccccc21 (centres undefined)
inactive: dose: 100.0 mg/kg/injection, schedule: Q04DX003 (ip), vehicle: saline sonified 97 % of control | dose: 200.0 mg/kg/injection, schedule: Q04DX003 (ip), vehicle: saline sonified 88 % of control | dose: 400.0 mg/kg/injection, schedule: Q04DX003 (ip), vehicle: saline sonified 103 % of control

C=CCOP(=O)(OCC=C)C1(Cl)C(Cl)=C(Cl)C(=O)C(Cl)=C1Cl
inactive: dose: 25.0 mg/kg/injection, schedule: Q01DX009 (ip), vehicle: saline + alcohol 96 % of control | dose: 50.0 mg/kg/injection, schedule: Q01DX009 (ip), vehicle: saline + alcohol 96 % of control | dose: 100.0 mg/kg/injection, schedule: Q01DX009 (ip), vehicle: saline + alcohol 96 % of control | [1] 100 % of control

COC(=O)/C=C/c1ccc([N+](=O)[O-])cc1
inactive: [1] 100 % of control | [3] 100 % of control | [5] 105 % of control

OC(c1ccccc1)c1ccccc1
inactive: [11] 91 % of control | [12] 91 % of control | [13] 91 % of control

S=c1[nH]cc[nH]1
inactive: dose: 100.0 mg/kg/injection, schedule: Q01DX001 (ip), vehicle: saline 103 % of control | dose: 200.0 mg/kg/injection, schedule: Q01DX001 (ip), vehicle: saline 100 % of control | dose: 400.0 mg/kg/injection, schedule: Q01DX001 (ip), vehicle: saline 96 % of control

C=CCC(Cc1ccccc1)C1=NC(C)(C)CC(C)O1 (centres undefined)
inactive: [10] 101 % of control | [8] 97 % of control | [1] 97 % of control | [9] 103 % of control | [3] 94 % of control

O=C(COc1ccccc1)Nc1ccc(Br)cc1
inactive: dose: 100.0 mg/kg/injection, schedule: Q01DX001 (ip), vehicle: Klucel (hydroxypropylcellulose) (HPC) 97 % of control | dose: 200.0 mg/kg/injection, schedule: Q01DX001 (ip), vehicle: Klucel (hydroxypropylcellulose) (HPC) 105 % of control | dose: 400.0 mg/kg/injection, schedule: Q01DX001 (ip), vehicle: Klucel (hydroxypropylcellulose) (HPC) 105 % of control

OCC1OC(c2nnc3c4ccccc4cnn23)C(O)C1O (centres undefined)
inactive: dose: 10.94 mg/kg/injection, schedule: Q01DX005 (ip), vehicle: water 100 % of control | dose: 11.25 mg/kg/injection, schedule: Q01DX005 (ip), vehicle: water 96 % of control | dose: 21.88 mg/kg/injection, schedule: Q01DX005 (ip), vehicle: water 94 % of control | dose: 22.5 mg/kg/injection, schedule: Q01DX005 (ip), vehicle: water 94 % of control | dose: 43.75 mg/kg/injection, schedule: Q01DX005 (ip), vehicle: water 93 % of control | dose: 45.0 mg/kg/injection, schedule: Q01DX005 (ip), vehicle: water 90 % of control | dose: 87.5 mg/kg/injection, schedule: Q01DX005 (ip), vehicle: water 94 % of control | dose: 90.0 mg/kg/injection, schedule: Q01DX005 (ip), vehicle: water 96 % of control | dose: 175.0 mg/kg/injection, schedule: Q01DX005 (ip), vehicle: water 93 % of control | dose: 180.0 mg/kg/injection, schedule: Q01DX005 (ip), vehicle: water 94 % of control
